Values after ≈ are worked out from the molar mass of the structure shown. Where two headings read alike, the source gives them in different places.
Columns and labels:
[1] = from C[C@H]1C[C@@H](C(=O)O[C@@H](C)[C@H](NC(=O)OCc2ccccc2)C(=O)OCC(=O)c2ccccc2)N(C(=O)[C@H](C)NC(=O)[C@@H]2CCCCN2C(=O)[C@@H]2CCCN2C(=O)OC(C)(C)C)C1, amide bond, pentafluorophenyl ester (EDC·HCl/pentafluorophenol), then aq NaHCO3, DCM, 1.24 mM, 25.0 °C, 4 steps
[2] = test system: S. aureus USA 300 ΔClpP; assay: Minimal inhibitory concentration, microbroth dilution; format: cell-based, Staphylococcus aureus; conditions: ClpP inactivated strain
Procedure, shortened: (§1)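 Compound was diluted twofold in the appropriate broth. Bacterial suspension (approx. 10^5 cfu/mL) was then added in equal volume, giving a maximum test concentration of 200 μM. After aerobic overnight incubation at 37 °C, wells were inspected visually for growth.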

[3] = test system: S. pneumoniae R6; assay: as above; format: cell-based
Procedure, shortened: (§2)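 Twofold serial dilutions in broth per CLSI M7-A7 microbroth dilution, incubated aerobically overnight at 37° C. MIC read visually as lowest concentration preventing bacterial growth.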

[4] = test system: S. pyogenes ATCC 700294; assay: as above; format: cell-based
Procedure, shortened: as §2

[5] = test system: Vero (kidney epithelial cells; ATCC CCL-81); assay: Cytotoxicity assay, CellTiter-Glo cell viability; format: cell-based; conditions: Vero cells, 72 hours
Procedure, shortened: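 Vero cells seeded overnight at 37 °C in DMEM with 10% FBS, then exposed to serial dilutions of compound for 72 h. Viability read by CellTiter-Glo luminescence; IC50 from duplicates, given as the range of two independent experiments.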

[6] = test system: S. aureus NRS70; assay: Minimal inhibitory concentration, microbroth dilution; format: cell-based
Procedure, shortened: as §1

[7] = test system: B. subtilis ATCC 23857; assay: as above; format: cell-based
Procedure, shortened: as §1

[8] = test system: S. aureus ATCC 29213; assay: as above; format: cell-based
Procedure, shortened: as §1

[9] = test system: S. aureus USA 300; assay: as above; format: cell-based
Procedure, shortened: as §1

[10] = Streptococcus pneumoniae, R6, read-out: Minimal Inhibitory Concentration S. pneumoniae R6
[11] = Streptococcus pyogenes, ATCC700294, read-out: Minimal Inhibitory Concentration S. pyogenes ATCC 700294
[12] = Staphylococcus aureus, NRS70, read-out: Minimal Inhibitory Concentration S. aureus NRS70
[13] = Bacillus subtilis, ATCC23857, read-out: Minimal Inhibitory Concentration B. subtilis ATCC 23857
[14] = Staphylococcus aureus, ATCC29213, read-out: Minimal Inhibitory Concentration S. aureus ATCC 29213
[15] = Staphylococcus aureus, USA300, read-out: Minimal Inhibitory Concentration S. aureus USA 300
[16] = Streptococcus pneumoniae, R6; read-out: Minimal Inhibitory Concentration S. pneumoniae R6
[17] = Streptococcus pyogenes, ATCC700294; read-out: Minimal Inhibitory Concentration S. pyogenes ATCC 700294
[18] = Staphylococcus aureus, USA300; read-out: Minimal Inhibitory Concentration S. aureus USA 300
[19] = Staphylococcus aureus, NRS70; read-out: Minimal Inhibitory Concentration S. aureus NRS70
[20] = Bacillus subtilis, ATCC23857; read-out: Minimal Inhibitory Concentration B. subtilis ATCC 23857
[21] = Staphylococcus aureus, ATCC29213; read-out: Minimal Inhibitory Concentration S. aureus ATCC 29213

| Compound | ring closure, yield of all isomers [1] [%] | Minimal Inhibitory Concentration S. aureus USA 300 ΔClpP [2] [µM] | MIC [3, 10] [µM] | MIC [4, 11] [µM] | IC50 [5] [µM] | MIC [6, 12] [µM] | MIC [7, 13] [µM] | MIC [8, 14] [µM] | MIC [9, 15] [µM] | MIC [3, 16] [µM] | MIC [4, 17] [µM] | MIC [9, 18] [µM] | MIC [6, 19] [µM] | MIC [7, 20] [µM] | MIC [8, 21] [µM] |
| --- | --- | --- | --- | --- | --- | --- | --- | --- | --- | --- | --- | --- | --- | --- | --- |
| C[C@H]1C[C@H]2C(=O)O[C@@H](C)[C@H](NC(=O)OCc3ccccc3)C(=O)N3CCC[C@H]3C(=O)N3CCCC[C@H]3C(=O)N[C@@H](C)C(=O)N2C1 | 74 | – | – | – | – | – | – | – | – | – | – | – | – | – | – |
| Cc1ccc(NC(=O)N[C@@H](Cc2cc(F)cc(F)c2)C(=O)N[C@@H]2C(=O)N3C[C@H](O)CC3C(=O)N(C)[C@@H](C)C(=O)N[C@@H](C)C(=O)N3C[C@@H](C)CC3C(=O)O[C@H]2C)cc1 (stereo partly drawn) [Compound 31, (S)-3-(3,5-Difluorophenyl)-N-((2S,6S,9S,11aS,13R,17S,18S,20aS)-13-Hydroxy-2,6,9,10,18-Pentamethyl-5,8,11,16,20-Pentaoxohexadecahydro-1H,5H,16H-Dipyrrolo[2,1-C:2′,1′-L][1]Oxa[4,7,10,13]Tetraazacyclohexadecin-17-Yl)-2-(3-(P-Tolyl)Ureido)Propanamide] | – | >200 | 0.195 (≈ 0.156 µg/mL) | 0.78 (≈ 0.622 µg/mL) | > 100 | 0.39 (≈ 0.311 µg/mL) | 0.39 (≈ 0.311 µg/mL) | 0.39 (≈ 0.311 µg/mL) | – | – | – | – | – | – | – |
| Cc1ccc(NC(=O)N[C@@H](Cc2cc(F)cc(F)c2)C(=O)N[C@@H]2C(=O)N3CCCC3C(=O)N(C)[C@@H]([C@H](C)O)C(=O)N[C@@H](C)C(=O)N3C[C@@H](C)CC3C(=O)O[C@H]2C)cc1 (stereo partly drawn) [Compound 35, (S)-3-(3,5-Difluorophenyl)-N-((2S,6S,9S,11aS,17S,18S,20aS)-9-((S)-1-Hydroxyethyl)-2,6,10,18-Tetramethyl-5,8,11,16,20-Pentaoxohexadecahydro-1H,5H,16H-Dipyrrolo[2,1-C:2′,1′-L][1]Oxa[4,7,10,13]Tetraazacyclohexadecin-17-Yl)-2-(3-(P-Tolyl)Ureido)Propanamide] | – | 200 | 0.049 (≈ 0.0398 µg/mL) | 0.39 (≈ 0.317 µg/mL) | 55.7 ± 3.6 | 0.1 (≈ 0.0812 µg/mL) | 0.2 (≈ 0.162 µg/mL) | 0.2 (≈ 0.162 µg/mL) | 0.2 (≈ 0.162 µg/mL) | – | – | – | – | – | – |
| CCc1ccc(NC(=O)N[C@@H](Cc2cc(F)cc(F)c2)C(=O)N[C@@H]2C(=O)N3CCCC3C(=O)N(C)[C@@H]([C@H](C)O)C(=O)N[C@@H](C)C(=O)N3C[C@@H](C)CC3C(=O)O[C@H]2C)cc1 (stereo partly drawn) [Compound 37, (S)-3-(3,5-Difluorophenyl)-2-(3-(4-Ethylphenyl)Ureido)-N-((2S,6S,9S,11aS,17S,18S,20aS)-9-((S)-1-Hydroxyethyl)-2,6,10,18-Tetramethyl-5,8,11,16,20-Pentaoxohexadecahydro-1H,5H,16H-Dipyrrolo[2,1-C:2′,1′-L][1]Oxa[4,7,10,13]Tetraazacyclohexadecin-17-Yl)Propanamide] | – | 100 | – | – | – | – | – | – | – | 0.024 (≈ 0.0198 µg/mL) | 0.1 (≈ 0.0826 µg/mL) | 0.1 (≈ 0.0826 µg/mL) | 0.1 (≈ 0.0826 µg/mL) | 0.05 (≈ 0.0413 µg/mL) | 0.1 (≈ 0.0826 µg/mL) |
| Cc1ccc(NC(=O)N[C@@H](Cc2cc(F)cc(F)c2)C(=O)N[C@@H]2C(=O)N3CCCC3C(=O)N(C)[C@@H]([C@H](C)O)C(=O)N[C@@H](C)C(=O)N3C[C@H](C)CC3C(=O)O[C@H]2C)cc1 (stereo partly drawn) [Compound 38, (S)-3-(3,5-Difluorophenyl)-N-((2R,6S,9S,11aS,17S,18S,20aS)-9-((S)-1-Hydroxyethyl)-2,6,10,18-Tetramethyl-5,8,11,16,20-Pentaoxohexadecahydro-1H,5H,16H-Dipyrrolo[2,1-C:2′,1′-L][1]Oxa[4,7,10,13]Tetraazacyclohexadecin-17-Yl)-2-(3-(P-Tolyl)Ureido)Propanamide] | – | 200 | 0.02 (≈ 0.0162 µg/mL) | 0.1 (≈ 0.0812 µg/mL) | 46.1 ± 5.5 | 0.05 (≈ 0.0406 µg/mL) | 0.05 (≈ 0.0406 µg/mL) | 0.05 (≈ 0.0406 µg/mL) | 0.1 (≈ 0.0812 µg/mL) | – | – | – | – | – | – |
| C[C@@H]1CC2C(=O)O[C@@H](C)[C@H](NC(=O)[C@H](Cc3cc(F)cc(F)c3)NC(=O)Nc3ccc(OC(F)(F)F)cc3)C(=O)N3CCCC3C(=O)N(C)[C@@H]([C@H](C)O)C(=O)N[C@@H](C)C(=O)N2C1 (stereo partly drawn) [Compound 41, (S)-3-(3,5-Difluorophenyl)-N-((2R,6S,9S,11aS,17S,18S,20aS)-9-((S)-1-Hydroxyethyl)-2,6,10,18-Tetramethyl-5,8,11,16,20-Pentaoxohexadecahydro-1H,5H,16H-Dipyrrolo[2,1-C:2′,1′-L][1]Oxa[4,7,10,13]Tetraazacyclohexadecin-17-Yl)-2-(3-(4-(Trifluoromethoxy)Phenyl)Ureido)Propanamide] | – | 50 | – | – | – | – | – | – | – | 0.02 (≈ 0.0176 µg/mL) | 0.1 (≈ 0.0882 µg/mL) | 0.02 (≈ 0.0176 µg/mL) | 0.01 (≈ 0.00882 µg/mL) | 0.01 (≈ 0.00882 µg/mL) | 0.02 (≈ 0.0176 µg/mL) |
| CCc1ccc(NC(=O)N[C@@H](Cc2cc(F)cc(F)c2)C(=O)N[C@@H]2C(=O)N3CCCC3C(=O)N(C)[C@@H]([C@H](C)O)C(=O)N[C@@H](C)C(=O)N3C[C@H](C)CC3C(=O)O[C@H]2C)cc1 (stereo partly drawn) [Compound 42, (S)-3-(3,5-Difluorophenyl)-2-(3-(4-Ethylphenyl)Ureido)-N-((2R,6S,9S,11aS,17S,18S,20aS)-9-((S)-1-Hydroxyethyl)-2,6,10,18-Tetramethyl-5,8,11,16,20-Pentaoxohexadecahydro-1H,5H,16H-Dipyrrolo[2,1-C:2′,1′-L][1]Oxa[4,7,10,13]Tetraazacyclohexadecin-17-Yl)Propanamide] | – | 100 | – | – | – | – | – | – | – | 0.01 (≈ 0.00826 µg/mL) | 0.05 (≈ 0.0413 µg/mL) | 0.1 (≈ 0.0826 µg/mL) | 0.02 (≈ 0.0165 µg/mL) | 0.01 (≈ 0.00826 µg/mL) | 0.05 (≈ 0.0413 µg/mL) |

Source: patent US9879050B2, “Substituted urea depsipeptide analogs as activators of the CLPP endopeptidase” (priority 2013, dated 2018)
